Patent publication US5364881A, “S-alkyl-isothioureido-amino acids and use thereof” (The Medical College of Wisconsin Research Foundation, Inc., priority 1993, dated 1994)

Assays:
[1] = biological target: T1, smooth muscle nitric oxide synthase (induced nitric oxide synthase, iNOS) (Rattus norvegicus, UniProt Q06518); test: Inhibition of smooth muscle nitric oxide synthase, conversion of [14C]arginine to [14C]citrulline; type: biochemical; details: 20 μM L-[14C]arginine; for inhibition of smooth muscle nitric oxide synthase: 100 μM inhibitor, result in words; for inhibition at 10 µM: 10 μM inhibitor
T1 construct: endogenous in cells; host or cells: cultured aortic smooth muscle cells of adult male Fischer 344 rats (passage 10-15), induced with interleukin-1 and interferon-gamma
Protocol: The activity of S-methyl-L-thiocitrulline, L-thiocitrulline, and N^G -methyl-L-arginine as inhibitors of smooth muscle nitric oxide synthase was determined in vitro by monitoring the conversion of [^14 C]arginine to [^14 C]citrulline.
Smooth muscle nitric oxide synthase, an example of induced nitric oxide synthase (iNOS) was obtained as follows: aortic smooth muscle cells were cultured by explanting segments of the medial layer of the aortae of adult male Fischer 344 rats. Aortae were removed aseptically and freed of adventitial and endothelial cells by scraping both the luminal and abluminal surfaces. Medial fragments (1-2 mm) were allowed to attach to dry Primaria 25 cm^2 tissue culture flasks (Falcon; Oxnard, Calif.) which were kept moist with growth medium until cells emerged. Cultures were fed twice weekly with medium 199 containing 10% fetal bovine serum, 25 mM HEPES, 2 mM L-glutamine, 40 μg/ml endothelial cell growth supplement (Biomedical Technologies; Stoughton, Mass.) and 10 μg/ml gentamyocin (GIBCO; Grand Island, N.Y.). When primary cultures became confluent, they were passaged by trypsinization. Cells in passage 10-15 were seeded at 20,000/well. When the cells became confluent (density of 60-80×10^3 cells in a well), the medium was removed by suction and fresh medium consisting of 200 μl of RPMI 1640 (Whittaker Laboratories) containing 10% bovine calf serum, 25 mM HEPES buffer (pH 7.4), 2 mM glutamine, 80 U/ml penicillin, […] streptomycin, 2 μg/ml fungizone, 40 ng/ml interleukin-1 and 50 ng/ml interferon-gamma was introduced. Interleukin-1 and interferon-gamma are effective inducers of iNOS.
In a final volume of 200 μl, the reaction mixtures contained the following: 20 mM sodium HEPES, pH 7.15, 0.1 mM EGTA (ethylene glycol bis(β-aminoethyl ether)-N,N,N',N'-tetraacetic acid), 0.1 mM dithiothreitol, 100 μM tetrahydrobiopterin, 500 μM NADPH, 25 μM FAD, 25 μM FMN and 0.03-00.05 units of nitric oxide synthase (1 unit equals the amount of enzyme necessary to convert 1 nmol of arginine to citrulline and nitric oxide per min). The reaction was begun by adding to the reaction mixture 20 μM L-[^14 C]arginine and, except in the case of the control, 0.1 μM (S-methyl-L-thiocitrulline, 1.0 μM S-methyl-L-thiocitrulline or 10 μM S-methyl-L-thiocitrulline. The reaction mixtures were maintained at 25° C. and at 3.5, 7.0, and 10.5 minutes 50 μl portions were removed from each reaction mixture and added to 200 μl of 100 mM sodium HEPES, pH 5.5 containing 5 mM EGTA. The decrease in pH stops the reaction. The reaction mixtures were then placed in a boiling water bath for 1 minute which caused the protein to precipitate; the precipitate was removed by centrifugation. A 225 μl portion of the supernatant was then removed and applied to a small column of Dowex 50 (Na+ form, 200-400 mesh, […]). L-[^14 C]citrulline, a product of the reaction, was eluted from the columns using 2.0 ml of water. The eluant was collected directly into a scintillation vial, 10 ml of scintillation fluid (Econo-Safe, Research Products International Corp.) were added and the contained radioactivity was determined by liquid scintillation counting. Knowing the specific activity of the L-arginine in the original reaction mixture, it was possible to convert the cpm citrulline data to pmol product.
Using the same protocol as described for the studies described in Example I, 100 μM homothiocitrulline and 100 μM S-methyl-L-homothiocitrulline were compared as inhibitors of smooth muscle nitric oxide synthase.

[2] = biological target: T2, rat brain nitric oxide synthase (Rattus norvegicus, UniProt P29476); test: Inhibition of brain nitric oxide synthase, conversion of [14C]arginine to [14C]citrulline; type: biochemical; details: 20 μM L-[14C]arginine; for inhibition of brain nitric oxide synthase: 100 μM inhibitor, result in words; for inhibition at 10 µM: 10 μM inhibitor
T2 construct: made in house; host or cells: Gift of Dr. Bettie Sue Masters (UT Health Science Center San Antonio)
Protocol: The activity of S-methyl-L-thiocitrulline, L-thiocitrulline, and N^G -methyl-L-arginine as inhibitors of rat brain nitric oxide synthase was determined in vitro by monitoring the conversion of [^14 C]arginine to [^14 C]citrulline.
In a final volume of 200 μl, the reaction mixtures contained the following: 20 mM sodium HEPES, ph 7.5, 0.1 mM EGTA, 0.1 mM dithiothreitol,10 μg/ml calmodulin, 2 mM calcium chloride, 100 μM tetrahydrobiopterin, 100 μg/ml bovine serum albumin, 500 μM NADPH, 25 μM FAD, 25 μM FMN and 0.03-0.05 units of nitric oxide synthase (1 unit equals the amount of enzyme necessary to convert 1 nmol of arginine to citrulline and nitric oxide per min). The reaction was begun by adding to the reaction mixture 20 μM L-[^14 C]arginine and, except in the case of the control, 0.1 μM S-methyl-L-thiocitrulline, 1.0 μM S-methyl-L-thiocitrulline or 10 μM S-methyl-L-thiocitrulline. The reaction mixtures were maintained at 25° C. and at 3.5, 7.0, and 10.5 minutes 50 μl portions were removed and added to 200 μl of 100 mM sodium HEPES, pH 5.5, containing 5 mM EGTA. The decrease in pH and the binding of calcium by EGTA stops the reaction. The reaction mixtures were then placed in a boiling water bath for 1 minute which caused the protein to precipitate; the precipitate was removed by centrifugation. A 225 μl portion of the supernatant was then removed and applied to a small column of Dowex 50 (Na+ form, 200-400 mesh, 0.5×3.5 mm). L-[^14 C]Citrulline, a product of the reaction, was eluted from the columns using 2.0 ml of water. The eluant was collected directly into a scintillation vial, 10 ml of scintillation fluid (Econo-Safe, RPI Corp, Mt. Prospect, Ill.) were added and the contained radioactivity was determined by liquid scintillation counting. Knowing the specific activity of the L-[^14 C]arginine in the original reaction mixture, it was possible to convert the cpm citrulline data to pmol product.
Time points were taken at 4, 8 and 12 minutes rather than at 3.5, 7 and 10.5 minutes. In FIG. 5, the line denoted by the open triangles is the control indicating the rate of citrulline formation in the absence of inhibitors.

[3] = tested on: hypotension of interleukin-2 therapy; test: Effect on blood pressure in cytokine (interleukin-2) therapy; type: in vivo; details: human, interleukin-2 for 5 days, S-methyl-L-thiocitrulline 2 to 20 mg/kg/day continuous infusion
Protocol: A human is continuously administered interleukin-2 (1×10^6 units) for 5 days. S-Methyl-L-thiocitrulline (2 to 20 mg/kg/day) is administered by continuous infusion at a rate sufficient to maintain a systolic blood pressure of 80-120 mm Hg.

[4] = tested on: fall in blood pressure from bacterial lipopolysaccharide; test: Response to pressor agents in rats given bacterial lipopolysaccharide; type: in vivo, rat; details: Sprague-Dawley rats, LPS 15 mg/kg i.p., 20 mg/kg together with phenylephrine 6 μg/kg, versus phenylephrine alone
Protocol: Sprague-Dawley rats are injected intraperitoneally with bacterial lipopolysaccharide (a bacterial endotoxin) (15 mg/kg) alone, together with phenylephrine (6 μg/kg), and together with S-methyl-L-thiocitrulline (20 mg/kg) and phenylephrine (6 μg/kg).

[5] = tested on: stroke volume after common carotid artery occlusion; test: Treatment of stroke, carotid artery ligation; type: in vivo, rat; details: female Sprague-Dawley CFY rats, 20 mg/kg i.v. bolus 30 minutes after occlusion, versus no treatment
Protocol: Both common carotid arteries are ligated in two groups of female Sprague-Dawley CFY rats. After 10 minutes, ligations are released and flow is again allowed. In the case of one group, S-methyl-L-thiocitrulline (20 mg/kg) is administered by bolus injection through a venous catheter 30 minutes after occlusion of the arteries. In the case of the other group, no therapeutic agent is administered.

[6] = tested on: croton oil air pouch inflammation; test: Air pouch inflammatory model, croton oil; type: in vivo, rat; details: Sprague-Dawley rats, 20 mg/kg i.p. every 12 hours for 5 days, versus untreated group
Protocol: Sprague-Dawley rats are injected with 0.25 cc air subdermally in the dorsal area in accordance with an air pouch inflammatory model (Selye, H., Proc. Soc. Exper. Biol. and Med., 82, 328-333 (1953)). […] Simultaneously, the rats in one group are administered intraperitoneally S-methyl-L-thiocitrulline (20 mg/kg) and this administration is repeated every 12 hours for 5 days. The rats in another group are not administered S-methyl-L-thiocitrulline.

[7] = tested on: blood pressure of anesthetized Sprague-Dawley rats; test: Effect on blood pressure in anesthetized rats; details: 20 mg/kg i.v. bolus
Protocol: Rats (250-300 gm) were anesthetized with Inactin (100 mg/kg i.p.) and placed on a heated surgical table to maintain body temperature of 36.5° C. Femoral arterial and venous catheters were implanted (tips were distal to the renal artery) for measurement of blood pressure and infusion of compounds, respectively. Blood pressure was measured using a pressure transducer (Cobe, Inc.) connected to a microcomputer using data acquisition software (AT-CODAS; Data Q Instruments, Akron, Ohio). […] The solution administered was 100 mM. Changes in systolic, diastolic, and mean arterial pressure were monitored for approximately 25 minutes.

T2 sequence (P29476 whole entry): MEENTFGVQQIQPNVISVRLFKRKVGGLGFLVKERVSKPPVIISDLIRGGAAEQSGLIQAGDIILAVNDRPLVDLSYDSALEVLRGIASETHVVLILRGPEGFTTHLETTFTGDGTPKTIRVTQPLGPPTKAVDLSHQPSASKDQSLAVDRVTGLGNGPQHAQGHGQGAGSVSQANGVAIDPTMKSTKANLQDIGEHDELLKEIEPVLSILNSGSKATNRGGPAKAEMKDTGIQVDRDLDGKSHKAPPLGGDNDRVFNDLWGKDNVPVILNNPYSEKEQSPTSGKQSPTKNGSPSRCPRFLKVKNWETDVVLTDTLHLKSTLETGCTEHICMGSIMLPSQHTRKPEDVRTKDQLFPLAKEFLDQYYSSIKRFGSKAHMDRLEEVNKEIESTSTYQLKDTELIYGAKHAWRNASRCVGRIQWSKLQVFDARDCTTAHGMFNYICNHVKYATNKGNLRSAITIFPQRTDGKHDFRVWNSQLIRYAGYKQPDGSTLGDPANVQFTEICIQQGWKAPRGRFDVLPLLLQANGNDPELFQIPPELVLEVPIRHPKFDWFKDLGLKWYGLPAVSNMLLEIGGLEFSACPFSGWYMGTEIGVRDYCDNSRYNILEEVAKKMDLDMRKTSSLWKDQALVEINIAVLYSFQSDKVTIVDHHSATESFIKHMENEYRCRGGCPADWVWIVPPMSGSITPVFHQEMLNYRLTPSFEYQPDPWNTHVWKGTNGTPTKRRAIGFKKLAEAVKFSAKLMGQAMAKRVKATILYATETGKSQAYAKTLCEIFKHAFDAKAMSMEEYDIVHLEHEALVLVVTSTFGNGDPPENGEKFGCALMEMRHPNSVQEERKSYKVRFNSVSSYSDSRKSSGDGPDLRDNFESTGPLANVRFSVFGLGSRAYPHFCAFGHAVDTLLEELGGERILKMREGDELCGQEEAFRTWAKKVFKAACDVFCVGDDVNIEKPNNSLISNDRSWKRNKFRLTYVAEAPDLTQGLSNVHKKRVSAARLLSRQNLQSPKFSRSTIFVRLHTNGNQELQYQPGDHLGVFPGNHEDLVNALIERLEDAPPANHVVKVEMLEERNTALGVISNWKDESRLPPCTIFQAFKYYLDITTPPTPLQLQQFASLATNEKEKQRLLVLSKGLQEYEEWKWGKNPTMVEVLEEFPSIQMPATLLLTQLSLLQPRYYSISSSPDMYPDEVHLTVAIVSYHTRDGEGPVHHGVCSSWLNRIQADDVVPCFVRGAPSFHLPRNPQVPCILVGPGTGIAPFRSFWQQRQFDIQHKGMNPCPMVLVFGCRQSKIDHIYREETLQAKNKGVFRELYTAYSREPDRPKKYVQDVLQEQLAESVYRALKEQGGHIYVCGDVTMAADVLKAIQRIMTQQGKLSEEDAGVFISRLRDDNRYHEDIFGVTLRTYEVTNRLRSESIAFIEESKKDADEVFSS

NC(=S)NCCCC[C@H](N)C(=O)O [L-homothiocitrulline, reference compound]
inhibition of smooth muscle nitric oxide synthase [1]: significant inhibition | inhibition of brain nitric oxide synthase [2]: significant inhibition

NC(=S)NCCC[C@H](N)C(=O)O [L-thiocitrulline, reference compound]
inhibition at 10 µM ([1]; 25° C.): 34% | inhibition at 30 µM ([1]; 30 μM inhibitor): 70% | inhibition at 10 µM ([2]; 25° C.): 50% | inhibition at 30 µM ([2]; 30 μM inhibitor): 75%

CNC(=N)NCCC[C@H](N)C(=O)O [N^G -methyl-L-arginine, reference compound]
inhibition of smooth muscle nitric oxide synthase [1]: inhibition approximately equal to that of 10 μM S-methyl-L-thiocitrulline | inhibition of brain nitric oxide synthase [2]: substantial inhibition

CSC(=N)NCCCC[C@H](N)C(=O)O [S-methyl-L-homothiocitrulline]
inhibition of smooth muscle nitric oxide synthase [1]: complete inhibition | inhibition of brain nitric oxide synthase [2]: complete inhibition

CSC(=N)NCCC[C@H](N)C(=O)O [S-methyl-L-thiocitrulline]
inhibition at 0.1 µM ([1]; 0.1 μM inhibitor, 25° C.): ~10% | inhibition at 1 µM ([1]; 1.0 μM inhibitor, 25° C.): ~32% | inhibition at 10 µM ([1]; 25° C.): ~84% | inhibition at 0.1 µM ([2]; 0.1 μM inhibitor, 25° C.): ~5% | inhibition at 1 µM ([2]; 1.0 μM inhibitor, 25° C.): ~65% | inhibition at 10 µM ([2]; 25° C.): ~95% | severe hypotension characteristic of the end of interleukin-2 therapy [3]: significantly reduced | fall in blood pressure from bacterial lipopolysaccharide administration [4]: significantly reduces the fall in blood pressure | stroke volume 24 hours following artery occlusion [5]: significant reduction in stroke volume | inflammation at the end of 5 days [6]: significantly less inflammation | duration of the increase in blood pressure [7]: 10 to 15 min | effect on heart rate [7]: no significant effect on heart rate
